Assay results from patent US20260364184A1, “COMPOUND BASED ON OXOISOINDOLINYL-SUBSTITUTED TETRAHYDROPYRIMIDINE-DIONE AND USE THEREOF” (GLUETACS THERAPEUTICS (SHANGHAI) CO., LTD., priority 2023, published 2026).
Like-named read-outs stand apart in the source and are kept apart here.

Columns and labels:
Type in all cases: cell-based
[1] = Inhibition of RPMI-8226 cell proliferation (CellTiter luminescent viability); settings: Homo sapiens, read-out: Inhibition Rate at 10 nM (%)
Protocol: (§1) The tumor cells used herein were cultured in a cell culture medium listed in table 3 at 37 °C in an incubator with 5% CO2. Prior to experimentation, all cell lines used were correctly identified by STR profiling, and tested negative for mycoplasma contamination using a mycoplasma detection kit through routine screenings.
(§2) The IC50 values of the compounds of the present disclosure (including the compounds in Table 1, Table 2, and Examples 1-468) were determined using the CellTiter-Meiluncell Luminescent Cell Viability Assay Kit from Dalian Meilun Biotech Co., Ltd. The detailed procedure is as follows: Tumor cells were seeded in 96-well cell culture plates at the densities specified in Table 4. On the following day, the test compounds of the present disclosure were subjected to serial dilution. The dilution can be performed according to one of the following two methods: • (1) The first dilution method: The test compounds of the present disclosure (including the compounds in Table 1, Table 2, and Examples 1-468) were subjected to 5-fold serial dilutions starting from a highest concentration of 2000 μM, resulting in a total of 9 concentrations from high to low (2000, 400, 80, 16, 3.2, 0.64, 0.128, 0.0256, 0.00512 μM). Subsequently, 0.5 μL of the test compound dilution was transferred into the 96-well plate containing the cells, with each well containing 100 μL of cell culture medium. […] Into the 96-well plate, the diluted test compounds and corresponding detection reagents were added, resulting in final test compound concentrations of 500 nM and 10 nM, respectively. The experimental procedure is described below using the diluted 2 μM test compound as an example.
(§3) 0.5 μL of the aforementioned diluted compound of the present disclosure (including the compounds in Table 1, Table 2, and Examples 1-468) was added to the seeded cells in 100 μL of medium, yielding a final test compound concentration of 10 nM. After the cells were treated with the compounds of the present disclosure for a specified period, the cell viability assay reagent was added to the culture medium according to the kit's instructions to determine cell viability. […] All controls were treated using the same procedure as the compounds of the present disclosure. The growth inhibition curves for the compounds of the present disclosure were plotted using Prism GraphPad software, and the IC50 values were calculated therefrom.

[2] = system: Human B-Cell Lymphoma Cells (RPMI-8226); assay: as above; settings: RPMI-8226, 500 nM, read-out: Inhibition Rate at 500 nM (%)
Protocol: as §1, §2, §3

[3] = system: Human lung cancer cell line (H292); assay: Inhibition of H292 cell proliferation (CellTiter luminescent viability); settings: NCI-H292, Table IM1, CDK9 inhibitor-based, 96 hours; for inhibition at 0.01 µM: H292, 10 nM, read-out: Inhibition Rate at 10 nM (%); for inhibition at 0.5 µM: H292, 500 nM, read-out: Inhibition Rate at 500 nM (%)
Protocol: as §1, §2, §3

[4] = system: Human Multiple myeloma cell line (MM.1S); assay: Inhibition of MM.1S cell proliferation (CellTiter luminescent viability); settings: Homo sapiens, MM1.S, Table IA5, IRAK4 inhibitor-based, 96 hours; for inhibition at 0.01 µM: 10 nM, read-out: Inhibition Rate at 10 nM (%); for inhibition at 0.5 µM: 500 nM, read-out: Inhibition Rate at 500 nM (%)
In short: (§4)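 Cells are seeded in 96-well plates, cultured at 37 °C, 5% CO2, and treated next day with 5-fold serial compound dilutions (stock series from 2000 μM; 0.5 μL into 100 μL medium). Viability is read by CellTiter-Meiluncell luminescence after the set exposure, and IC50 is taken from growth-inhibition curves.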

[5] = system: Human myeloid monocytic leukemia cell line (MV-4-11); assay: Inhibition of MV-4-11 cell proliferation (CellTiter luminescent viability); settings: Homo sapiens, MV4-11, Table IA3, IRAK4 inhibitor-based, 96 hours; for inhibition at 0.01 µM: MV-4-11, 10 nM, read-out: Inhibition Rate at 10 nM (%); for inhibition at 0.5 µM: MV-4-11, 500 nM, read-out: Inhibition Rate at 500 nM (%)
In short: as §4

IRAK4 = molecular target: T1, IRAK4 (Homo sapiens, UniProt Q9NWZ3); assay: Western blot degradation of IRAK4; settings: hPBMC Cell; 24 hours
T1 construct: expression of target proteins in cells; endogenous in cells
T1 sequence (Q9NWZ3 1-460): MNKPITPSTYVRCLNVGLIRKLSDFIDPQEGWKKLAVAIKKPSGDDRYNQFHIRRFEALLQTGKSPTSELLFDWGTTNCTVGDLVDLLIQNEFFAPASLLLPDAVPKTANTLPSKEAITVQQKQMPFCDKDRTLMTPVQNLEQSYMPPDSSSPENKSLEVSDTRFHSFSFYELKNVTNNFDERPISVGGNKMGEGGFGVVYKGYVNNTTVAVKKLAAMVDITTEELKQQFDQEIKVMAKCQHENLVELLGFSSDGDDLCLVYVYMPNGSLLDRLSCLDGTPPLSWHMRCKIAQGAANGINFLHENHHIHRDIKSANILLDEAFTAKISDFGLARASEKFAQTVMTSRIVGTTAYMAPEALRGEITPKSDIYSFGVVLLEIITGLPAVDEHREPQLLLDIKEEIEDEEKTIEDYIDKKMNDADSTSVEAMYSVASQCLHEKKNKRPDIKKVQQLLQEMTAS
In short: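 Compound-treated cells harvested; lysates denatured 5 min at 95 °C, run on SDS-PAGE, blotted to NC membrane, blocked 1 h RT, probed with antibodies. Densitometry vs DMSO → DC50; target normalised to internal control → % remaining, degradation = 1 − remaining.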

[6] = system: Human Acute T Lymphoblastic Leukemia Cells (Molt-4); assay: Inhibition of Molt-4 cell proliferation (CellTiter luminescent viability); settings: Homo sapiens, MOLT-4, 96 h, Table IA2, IRAK4 inhibitor-based, 96 hours; for inhibition at 0.01 µM: Molt-4, 10 nM, read-out: Inhibition Rate at 10 nM (%); for inhibition at 0.5 µM: Molt-4, 500 nM, read-out: Inhibition Rate at 500 nM (%)
[7] = Table IA4, IRAK4 inhibitor-based, RPMI-8226, 10 nM, 96 hours
[8] = Table IA4, IRAK4 inhibitor-based, 96 hours

Row | SMILES | Degradation of substrate protein IRAK4 (substrate protein remaining %) (IRAK4) | inhibition at 0.01 µM ([1]; RPMI-8226, 10 nM) | inhibition at 0.5 µM [2] | inhibition at 0.01 µM [3] | inhibition at 0.5 µM [3] | inhibition at 0.01 µM [4] | inhibition at 0.5 µM [4] | inhibition at 0.01 µM [5] | inhibition at 0.5 µM [5] | inhibition at 0.01 µM [1, 7] | inhibition at 0.5 µM [2, 8] | inhibition at 0.01 µM [6] | inhibition at 0.5 µM [6]
1 | O=C(NC1CCNCC1)c1[nH]ncc1NC(=O)c1c(Cl)cccc1Cl [AT7519, reference compound] |  | 0 to 5% | -20 to -15% | -5 to 0% | 5 to 10% |  |  |  |  |  |  |  | 
2 | Cn1ncc(-c2nc(NC3CCN(Cc4ccc5c(c4)CN(N4CCC(=O)NC4=O)C5=O)CC3)ncc2Cl)c1CC1CC1 [GT-08212, 1-(5-((4-((5-chloro-4-(5-(cyclopropylmethyl)-1-methyl-1H-pyrazol-4-yl)pyrimidin-2-yl)amino)piperidin-1-yl)methyl)-1-oxoisoindolin-2-yl)dihydropyrimidine-2,4 (1H,3H)-dione] |  | 20 to 30% | 5 to 10% | 20 to 30% | 30 to 40% |  |  |  |  |  |  |  | 
3 | COc1cc2nn([C@H]3CC[C@H](CN4C5CCC4CN(c4ccc6c(c4)C(=O)N(N4CCC(=O)NC4=O)C6=O)C5)CC3)cc2cc1NC(=O)c1cccc(C(F)(F)F)c1 [GT-08667, N-(2-((1r,4r)-4-((3-(2-(2,4-dioxotetrahydropyrimidin-1(2H)-yl)-1,3-dioxoisoindolin-5-yl)-3,8-diazabicyclo[3.2.1]octan-8-yl)methyl)cyclohexyl)-6-methoxy-2H-indazol-5-yl)-3-(trifluoromethyl)benzamide] | A (0%≤substrate protein remaining %≤80%) |  |  |  |  |  |  |  |  | 20 to 25% | 30 to 40% | 20 to 40% | 20 to 40%
4 | COc1cc2nn([C@H]3CC[C@H](CN4CCN(C5CCN(c6ccc7c(c6)C(=O)N(N6CCC(=O)NC6=O)C7=O)CC5(F)F)CC4)CC3)cc2cc1NC(=O)c1cccc(C(F)(F)F)n1 (stereo partly drawn) [GT-08659, N-(2-((1r,4r)-4-((4-(1-(2-(2,4-dioxotetrahydropyrimidin-1(2H)-yl)-1,3-dioxoisoindolin-5-yl)-3,3-difluoropiperidin-4-yl)piperazin-1-yl)methyl)cyclohexyl)-6-methoxy-2H-indazol-5-yl)-6-(trifluoromethyl) picolinamide] | A (0%≤substrate protein remaining %≤80%) |  |  |  |  |  |  |  |  | 15 to 20% | 30 to 40% | 10 to 15% | 20 to 40%
5 | O=C1CCN(N2C(=O)c3ccc(N4CCC(CN5CCC(n6cc(NC(=O)c7cnn8ccc(N9CCOCC9)nc78)c(C(F)F)n6)CC5)CC4)cc3C2=O)C(=O)N1 [GT-05291, N-(3-(difluoromethyl)-1-(1-((1-(2-(2,4-dioxotetrahydropyrimidin-1(2H)-yl)-1,3-dioxoisoindolin-5-yl)piperidin-4-yl)methyl)piperidin-4-yl)-1H-pyrazol-4-yl)-5-morpholinopyrazolo[1,5-a]pyrimidine-3-carboxamide] | A (0%≤substrate protein remaining %≤80%) |  |  |  |  | 10 to 15% | 20 to 25% | 50 to 60% | 60 to 80% | 25 to 30% | 25 to 30% |  | 

Second part, led by results:

Row | Degradation of substrate protein IRAK4 (substrate protein remaining %) (IRAK4) | SMILES | inhibition at 0.01 µM ([1]; RPMI-8226, 10 nM) | inhibition at 0.5 µM [2] | inhibition at 0.01 µM [3] | inhibition at 0.5 µM [3] | inhibition at 0.01 µM [4] | inhibition at 0.5 µM [4] | inhibition at 0.01 µM [5] | inhibition at 0.5 µM [5] | inhibition at 0.01 µM [1, 7] | inhibition at 0.5 µM [2, 8] | inhibition at 0.01 µM [6] | inhibition at 0.5 µM [6]
6 | A (0%≤substrate protein remaining %≤80%) | O=C1CCN(N2C(=O)c3ccc(CN4CCC(n5cc(NC(=O)c6coc(-c7ccnc(NCC(F)(F)F)c7)n6)c(C(F)F)n5)CC4)cc3C2=O)C(=O)N1 [GT-05188, N-(3-(difluoromethyl)-1-(1-((2-(2,4-dioxotetrahydropyrimidin-1(2H)-yl)-1,3-dioxoisoindolin-5-yl)methyl)piperidin-4-yl)-1H-pyrazol-4-yl)-2-(2-((2,2,2-trifluoroethyl)amino)pyridin-4-yl) oxazole-4-carboxamide] |  |  |  |  | 10 to 15% | 30 to 40% | 36 to 45% | 80 to 100% | 30 to 40% | 40 to 60% |  | 
7 | A (0%≤substrate protein remaining %≤80%) | COc1cc2nn([C@H]3CC[C@H](CN4CCN(c5ccc6c(c5F)C(=O)N(N5CCC(=O)NC5=O)C6=O)CC4)CC3)cc2cc1NC(=O)c1cccc(C(F)(F)F)c1 [GT-08669, N-(2-((1r,4r)-4-((4-(2-(2,4-dioxotetrahydropyrimidin-1(2H)-yl)-4-fluoro-1,3-dioxoisoindolin-5-yl)piperazin-1-yl)methyl)cyclohexyl)-6-methoxy-2H-indazol-5-yl)-3-(trifluoromethyl)benzamide] |  |  |  |  |  |  |  |  | 20 to 25% | 30 to 40% | 20 to 40% | 20 to 40%
8 | A (0%≤substrate protein remaining %≤80%) | O=C1CCN(N2Cc3cc(CN4CCN(c5ccc(-n6cc(NC(=O)c7coc(-c8ccnc(NCC(F)(F)F)c8)n7)c(C(F)F)n6)cc5)CC4)ccc3C2=O)C(=O)N1 [GT-05318, N-(3-(difluoromethyl)-1-(4-(4-((2-(2,4-dioxotetrahydropyrimidin-1(2H)-yl)-1-oxoisoindolin-5-yl)methyl)piperazin-1-yl)phenyl)-1H-pyrazol-4-yl)-2-(2-((2,2,2-trifluoroethyl)amino)pyridin-4-yl) oxazole-4-carboxamide] |  |  |  |  | 10 to 15% | 60 to 80% | 80 to 100% | 100 to 110% | 20 to 25% | 60 to 80% | 3 to 7% | 40 to 60%
9 | A (0%≤substrate protein remaining %≤80%) | COc1cc2nn([C@H]3CC[C@H](CN4CCN(c5ccc6c(c5)C(=O)N(N5CCC(=O)NC5=O)C6=O)CC4)CC3)cc2cc1NC(=O)c1cccc(C(F)(F)F)c1 [GT-08661, N-(2-((1r,4r)-4-((4-(2-(2,4-dioxotetrahydropyrimidin-1(2H)-yl)-1,3-dioxoisoindolin-5-yl)piperazin-1-yl)methyl)cyclohexyl)-6-methoxy-2H-indazol-5-yl)-3-(trifluoromethyl)benzamide] |  |  |  |  |  |  |  |  | 20 to 25% | 25 to 30% | 15 to 20% | 15 to 20%
